According to patent US9029409B2, “Isoxazolines as therapeutic agents” (AbbVie Inc., priority 2011, dated 2015):

target: T1, recombinant human MMP13 catalytic domain (CD) (Homo sapiens, UniProt P45452); assay: MMP-13 catalytic domain FRET enzyme assay; format: biochemical; settings: recombinant human MMP-13 catalytic domain
T1 construct: catalytic domain (CD) construct encompassing residues 20-274 (SWISS-PROT P45452); made in house
Procedure, shortened: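 Human MMP-13 catalytic domain (res 20-274, E. coli-expressed), 0.4 nM, cleaving FRET peptide (0.25 μM) in Tris pH 7.5/CaCl2/NaCl/Brij 35, 5% DMSO, 60 min RT; EDTA-quenched, fluorescence 485/535 nm. IC50 from sigmoidal fit of % inhibition. Some compounds also run on APMA-activated full-length MMP13 (2 nM).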

IC50 [nM]	SMILES
< 10	Cc1nc(C(=O)NCc2ccc(F)c(C)c2)cc(C2=NOC(c3ccc(C#N)nn3)C2)n1 (stereo not drawn)
10 to 100	COc1cc(CNC(=O)c2cc(C3=NOC(c4cnc5[nH]ncc5c4)C3)nc(C)n2)ccc1F (stereo not drawn)
10 to 100	COc1cc(CNC(=O)c2cc(C3CC(c4ccccc4)=NO3)nc(C)n2)ccc1F (stereo not drawn)
10 to 100	Cc1nc(C(=O)NCc2ccc3oc(C)nc3c2)cc(C2=NO[C@H]([C@H]3CO[C@H](CO)CO3)C2)n1
10 to 100	COc1cc(CNC(=O)c2cc(C3=NOC(C4CCN(C(=O)C5CC5)CC4)C3)nc(C)n2)ccc1F (stereo not drawn) [drawing 875]
> 1000	COc1cc(CNC(=O)c2cc(C3=NOC(CN4CCN(C(C)=O)CC4)C3)nc(C)n2)ccc1F (stereo not drawn)
10 to 100	CNC(=O)c1cccc(C2CC(c3cc(C(=O)NCc4ccc(F)c(OC)c4)nc(C)n3)=NO2)c1 (stereo not drawn)
> 1000	COc1cc(CNC(=O)c2cc(C3=NOC(C(=O)N4CCCC4)C3)nc(C)n2)ccc1F (stereo not drawn)
10 to 100	COc1cc(CNC(=O)c2cc(C3=NOC(C4CCN(S(=O)(=O)C5CC5)CC4)C3)nc(C)n2)ccc1F (stereo not drawn)
< 10	COc1cc(CNC(=O)c2cc(C3=NO[C@H]([C@H]4CO[C@H](CNS(C)(=O)=O)CO4)C3)nc(C)n2)ccc1F
< 10	COc1cc(CNC(=O)c2cc(C3=NO[C@H]([C@H]4CO[C@H](CNC(=O)CO)CO4)C3)nc(C)n2)ccc1F
10 to 100	COc1cc(CNC(=O)c2cc(C3=NOC(C4CCN(C(=O)CN(C)C)CC4)C3)nc(C)n2)ccc1F (stereo not drawn)
10 to 100	COc1ccc(CNC(=O)c2cc(C3CC(c4ccc(OCCO)cc4)=NO3)nc(C)n2)cc1 (stereo not drawn)
10 to 100	Cc1nc(C(=O)NCc2ccc(F)c(C)c2)cc(C2=NO[C@@H]([C@H]3CC[C@H](NC(=O)[C@H](C)O)CC3)C2)n1
< 10	COc1cc(CNC(=O)c2cc(C3=NOC(c4ccc(CO)cn4)C3)nc(C)n2)ccc1F (stereo not drawn)
< 10	COc1cc(CNC(=O)c2cc(C3=NOC([C@H]4CC[C@H](NC(=O)CO)CC4)C3)nc(C)n2)ccc1F (stereo partly drawn)
< 10	COc1cc(CNC(=O)c2cc(C3=NO[C@H]([C@H]4CO[C@H](CC#N)CO4)C3)nc(C)n2)ccc1F

IC50 [nM]	SMILES
10 to 100	COc1cc(CNC(=O)c2cc(C3=NOC(c4cncnc4)C3)nc(C)n2)ccc1F (stereo not drawn)
< 10	CNC(=O)Cn1cc(C2CC(c3cc(C(=O)NCc4ccc(F)c(OC)c4)nc(C)n3)=NO2)ccc1=O (stereo not drawn)
10 to 100	COc1cc(CNC(=O)c2cc(C3=NOC([C@H]4CC[C@H](NC(=O)CN(C)C)CC4)C3)nc(C)n2)ccc1F (stereo partly drawn)
10 to 100	COc1ccc(CNC(=O)c2cc(C3=NO[C@H]([C@H]4CO[C@H](CO)CO4)C3)nc(C)n2)cc1
> 1000	Cc1nc(C(=O)NCc2ccc(F)cc2)cc(C2=NO[C@@H]([C@H]3CO[C@H](CO)CO3)C2)n1
< 10	CC(=O)N[C@H]1CC[C@H](C2CC(c3cc(C(=O)NCc4ccc(F)c(Cl)c4)nc(C)n3)=NO2)CC1 (stereo partly drawn)
> 1000	Cc1nc(C(=O)NCc2ccc(Cl)c(Cl)c2)cc(C2=NO[C@H]([C@H]3CO[C@H](CO)CO3)C2)n1
10 to 100	COc1cc(CNC(=O)c2cc(C3=NOC(c4ccc(CO)nc4)C3)nc(C)n2)ccc1F (stereo not drawn)
> 1000	COC[C@@H]1CO[C@@H]([C@H]2CC(c3cc(C(=O)NCc4ccc(F)c(OC)c4)nc(C)n3)=NO2)CO1
< 10	COc1cc(CNC(=O)c2cc(C3=NOC([C@H]4CC[C@H](NS(C)(=O)=O)CC4)C3)nc(C)n2)ccc1F (stereo partly drawn)
< 10	COc1cc(CNC(=O)c2cc(C3=NOC(c4ccc(-c5nc(C)no5)cn4)C3)nc(C)n2)ccc1F (stereo not drawn)
< 10	Cc1nc(C(=O)NCc2ccc3c(c2)NC(=O)CO3)cc(C2=NOC(c3ccc(=O)n(C4CC4)c3)C2)n1 (stereo not drawn)
< 10	CNC(=O)N1CCC(C2CC(c3cc(C(=O)NCc4ccc(F)c(OC)c4)nc(C)n3)=NO2)CC1 (stereo not drawn)
< 10	COc1cc(CNC(=O)c2cc(C3=NOC(c4ccc(C(C)=O)nc4)C3)nc(C)n2)ccc1F (stereo not drawn)
< 10	COc1cc(CNC(=O)c2cc(C3=NOC([C@H]4CC[C@H](NC(=O)N(C)C)CC4)C3)nc(C)n2)ccc1F (stereo partly drawn)
10 to 100	COc1cc(CNC(=O)c2cc(C3=NOC(CC4CCN(C(=O)CO)CC4)C3)nc(C)n2)ccc1F (stereo not drawn)
